# Entries after “also recorded” stand apart in the source; their conditions may differ.
# How the values were obtained:
# [1] = tested on: BON pancreatic carcinoid cells; assay: cell culture pictures of BON cells; type: cell-based, human; settings: 100 μM, 4 days, versus DMSO alone
# Method: Cell culture. Human pulmonary carcinoid cells (NCI-H727) were obtained from American Type Culture Collection (Manassas, Va.) and human pancreatic carcinoid tumor cells, BON a generous gift of Drs. Evers and Townsend (Parekh et al., 1994), were maintained in RPMI 1640 and D-MEM-F12 media (Life Technologies, Rockville, Md.) respectively supplemented with 10% Fetal Bovine Serum (Sigma, St. Louis, Mo.), 100 IU/ml penicillin and 100 μg/ml streptomycin (Life Technologies) in a humidified atmosphere of 5% CO2 in air at 37° C. The maintenance of BON-raf cells and the activation of Raf-1 were followed as described previously (Sippel et al., 2003; Sippel and Chen, 2002; McMahon, 2001).
# (§1) ZM 336372 treatment. H727 and BON cells were plated at 50-60% confluence in 100 mm cell culture dishes and incubated overnight.
# [2] = tested on: BON pancreatic carcinoid cells; assay: MTT cell proliferation assay, BON cells; type: cell-based, human; settings: 100 μM, to day 10, versus DMSO
# Method: MTT Cell Proliferation Assay. […] Cells were trypsinized and plated in triplicate to 24 wells plates and allowed to adhere overnight. […] Cells were incubated and maintained with change of treatments at 2 days. Cell growth rates were analyzed after the addition of MTT reagent to the cultured cells following manufacturer's instructions. Absorbance was determined using spectrophotometer at a wave length of 540 nm.
# [3] = tested on: TT medullary thyroid cancer cells; assay: MTT assay, TT cells; type: cell-based; settings: 100 μM, versus DMSO
# Chromogranin A = assay: Western analysis of CgA, H727 cells; type: cell-based, human
# Method: as §1
# (§2) Western blot analysis. Cellular extracts were prepared and quantified by BCA protein assay kit (Pierce, Rockford, Ill.) as previously described (Sippel et al., 2003). 30-50 μg of denatured proteins from each sample underwent electrophoresis on a SDS-polyacrylamide gel and transferred to a nitrocellulose membranes (Schleicher and Schuell, Keene, N.H.). Membranes were blocked for 1 hr in milk solution (1×PBS, 5% non-fat dry milk, 0.05% Tween-20) and then incubated at 4° C. overnight with primary antibodies. The following primary antibody dilutions were used: phospho-ERK 1/2 (1:1,000); phospho-MEK (1:1,000); phospho-Raf-1 (Serine338) (1:1,000); p21 and p18, (1:1,000); (Cell Signal Technology, Beverly, Mass.), Chromogranin A (1:2,000; Zymed Laboratories, San Francisco, Calif.); MASH-1 (1:1000, BD Pharmingen) and G3PDH (1:10,000; Trevigen, Gaithersburg, Md.). After primary antibody incubation, membranes were washed 3×5 min in PBS-T wash buffer (1×PBS, 0.05% Tween 20). Then the membranes were incubated with either 1:2,000 dilution of goat anti-rabbit or goat anti-mouse secondary antibody (Cell Signal Technology, Beverly, Mass.) depending on the source of the primary antibody for 1 hr at room temperature. Membranes were washed 3×5 min in PBS-T wash buffer and developed by Immunstar™ HRP (Bio-Rad Laboratories, Hercules, Calif.) according to the manufacturer's directions. For the detection of hASH1 protein, membranes were developed with SuperSignal West Femto chemiluminescence reagent (Pierce).
# hASH1 = assay: Western analysis of hASH1, H727 cells; type: cell-based, human
# Method: as §1
# as §2, with “Membranes were washed 3×5 min in PBS-T wash buffer and developed by Immunstar™ HRP (Bio-Rad Laboratories, Hercules, Calif.) according to the manufacturer's directions. For the detection of hASH1 protein, membranes were developed with SuperSignal West Femto chemiluminescence reagent (Pierce).” left out
# p18 = assay: Western analysis of cell cycle inhibitor p18, H727 cells; type: cell-based, human; settings: 20 μM and 100 μM, 2 days
# Method: as §1
# as §2, with “Membranes were washed 3×5 min in PBS-T wash buffer and developed by Immunstar™ HRP (Bio-Rad Laboratories, Hercules, Calif.) according to the manufacturer's directions. For the detection of hASH1 protein, membranes were developed with SuperSignal West Femto chemiluminescence reagent (Pierce).” left out
# [4] = Drug toxicity assay, propidium iodide exclusion, H727 cells; type: cell-based, human; settings: human, 500 μM, 2 days, compared to native H727 cells, read-out: viable cells by PI exclusion
# Method: (§3) Drug Toxicity Assay. Briefly, cells were trypsinized and plated in a 6-well plate at 1-2×10^6 in triplicate and allowed to adhere overnight. […] As a control, DMSO was added. After incubation, the media was removed and cells were trypsinized and added to removed media. Cells were incubated on ice and 2.5 μg/ml Propidium Iodide (Sigma, St. Louis, Mo.) was added five minutes before flow cytometry (Ballestrero et al., 2004). Data was acquired using a FACSCalibur benchtop flow cytometer (Becton Dickenson, San Jose, Calif.) using CellQuest acquisition and analysis software.
# H727 cells = assay: as above; type: cell-based, human
# Method: as §3
# [5] = tested on: HepG2 cells, a hepatocellular cancer cell line; assay: cell morphology after 9-day treatment, HepG2 cells; type: cell-based
# Text: (§4) The results were assay using standard MTT, Western blot and cytoxocity assays.
# Panc-1 cells = assay: cell morphology after 9-day treatment, Panc-1 cells; type: cell-based; settings: Panc-1, 100 μM, 9-day cycle
# Text: as §4
# MiaPaCa-2 = MiaPaCa-2 MTT Assay; type: cell-based; settings: MiaPaCa-2, three concentrations
# pMEK and p-MAPK = assay: Western blot of pMEK and p-MAPK, HepG2 cells; type: cell-based
# Text: as §4
# p-MAPK [6] = assay: Western blot of p-MAPK, Panc-1 cells; type: cell-based; settings: all concentrations tested
# Text: as §4
# p-MAPK [7] = assay: Western blot of p-MAPK, MiaPaCa-2 cells; type: cell-based; settings: all concentrations tested
# Text: as §4
compound,measurement,setting,value
"Cc1ccc(NC(=O)c2cccc(N(C)C)c2)cc1NC(=O)c1ccc(O)cc1 [ZM336372, N-[5-(dimethyl-aminobensamido)-2-methylphenyl]-4-hydroxybenzamide]",growth of BON cells in culture,[1],dramatic growth arrest; also recorded: clear difference in growth
same,BON cell proliferation/metabolism (MTT),[2],lack of cell metabolism; also recorded: clear suppression of growth; also recorded: growth suppression occurred as early as day 4 and was maintained out to day 10; also recorded: inhibited
same,growth of TT cells (MTT),[3],clear suppression of growth
same,CgA level,"Chromogranin A; 20 μM and 100 μM, 2 days",reduction in both CgA and hASH1; also recorded: dose dependent decrease
same,time of earliest detected reduction of CgA,"Chromogranin A; 100 μM, 10 minutes to 48 hours",1 h
same,time of greatest comparative loss of CgA,"Chromogranin A; 100 μM, 10 minutes to 48 hours",48 h
same,CgA level over days,"Chromogranin A; 100 μM, days 2, 4 and 6",decrease in chromogranin; also recorded: CgA depletion was maintained to 6 days; also recorded: persistent reduction of CgA to day 6
same,hASH1 level,"hASH1; 20 μM and 100 μM, 2 days",reduction in both CgA and hASH1; also recorded: dose dependent decrease
same,time of first recognized reduction of hASH1,"hASH1; 100 μM, 10 minutes to 48 hours",1 h
same,p18 expression,p18,induced; also recorded: significant induction
same,"viability at 2 days, 500 µM",[4],40 to 50%
same,cytolysis,H727 cells; 20-100 μM,less than 20%
same,viability by PI exclusion,"H727 cells; 20 to 100 μM, 2 days, compared to DMSO",significant viability was maintained
same,cell death,"[5]; HepG2, 100 μM, 9-day cycle",significant cell death
same,cell growth in culture,"[5]; HepG2, 50 microM, day 9, versus DMSO control",clear difference in cell growth
same,cytopathology,"[5]; HepG2, low concentrations, 9-day cycle",cytopathology at low concentrations
same,cell death,Panc-1 cells,significant cell death
same,cellular proliferation (MTT),MiaPaCa-2,inhibition at the highest concentration; also recorded: reduction of cellular proliferation
same,p-MAPK level,pMEK and p-MAPK,increase in the levels of both pMEK and p-MAPK
same,pMEK level,pMEK and p-MAPK,increase in the levels of both pMEK and p-MAPK
same,p-MAPK level,p-MAPK [6],increase in p-MAPK following treatment at all concentrations tested
same,p-MAPK level,p-MAPK [7],increase in p-MAPK following treatment at all concentrations tested

# — patent US20060025485A1, “Hydroxybenazamide compounds for treatment of cancer” (priority 2004, published 2006)
